{
  "source": "patent US4576946A",
  "about": "“Derivatives of 4-methyl 6-phenyl pyridazine active on the central nervous system” (Sanofi, priority 1981, dated 1986)",
  "key": {"[1]": {"system": "ptosis induced by reserpine", "assay": "Antagonism of the ptosis induced by reserpine", "format": "in vivo, female mouse CDI (Charles River)", "settings": "reserpine 2 mg/kg i.v., 1 hour; for ED50: Mus musculus, ip", "procedure": "This test, described by GOURET (Journal de Pharmacologie (Paris), 1973, 4(1), 105-128), was carried out on the female mouse CDI (Charles River) weighing 20±1 g. The reserpine provokes a ptosis one hour after intravenous administration thereof; certain antidepressants oppose this ptosis.\nThe substances to be studied were administered by the i.p. route. The reserpine is administered simultaneously by the intravenous route at the dose of 2 mg/kg. One hour after administration of the reserpine, the number of animals not presenting ptosis is noted.\nThis test was carried out on batches of 10 mice, the results are expressed in percentage of animals not presenting ptosis and are the average of at least two experiments."}, "[2]": {"system": "striatal dopaminergic receptors", "assay": "Dopaminomimetic activity (rotations after unilateral lesion of nigrostriatal dopaminergic neurones)", "format": "in vivo, mouse", "settings": "5.3 μmoles/kg i.p.", "description": "The dopaminomimetic activity of the products of the invention was studied on the striatal dopaminergic receptors of the mouse according to the technique described by P. PROTAIS and J. COSTENTIN, Journal de Pharmacologie (Paris), 7, 251-255 (1976).\nThe unilateral lesion of the nigrostriatal dopaminergic neurones induces a hypersensitivity of the receptors of the dopamine at the level of the striatum.\nAfter administration of the products to be studied by the intraperitoneal route, the number of rotations made by the animal is counted for a period of 2 minutes.\nThe results are expressed in the form of percentage of the variations with respect to the controls not having received the product to be studied."}, "mice": {"system": "mice", "assay": "Convulsivant threshold dose (same experiments as acute toxicity)", "format": "in vivo, mouse", "procedure": "(§1) The products to be studied were administered by the intraperitoneal route in increasing doses to batches of 10 mice. The mortality provoked by the products studied was noted during the 24 hours following administration of the product.\nDuring the same experiments, the convulsivant threshold dose of the product is also noted, i.e. the minimum dose for which a convulsivant activity begins to show."}, "[3]": {"system": "despair reaction (duration of immobilisation)", "assay": "Despair reaction (\"Behavioral Despair\")", "format": "in vivo, female mouse, CDI (Charles River)", "settings": "10 mg/kg i.p., 1 hour before test; immobile time between 2nd and 6th minute", "procedure": "This test was carried out on the female mouse, CDI (Charles River), weighing 18 to 23 g, according to the method described by Porsolt (Archives Internationales de Pharmacodynamie, 1977, 229, 327-336). The principle of this test is as follows: when a mouse is placed in a narrow recipient filled with water, it struggles, then, after 2 to 4 mins., it becomes still and floats on its stomach, its back rounded, its rear paws drawn up under its body and it makes only a few movements necessary for holding its head out of the water. This is the so-called despair reaction. Certain psychotherapeutic agents, particularly antidepressants, extend the time during which the mouse struggles. The products to be studied were administered by the i.p. route 1 hour before the test. For the test, the animals are placed in a narrow recipient (10×10×10 cm) filled with water up to a height of 6 cm, the temperature of the water being 24° C.±2° C. The animals are left 6 minutes in the water and the time when the animal remains immobile between the 2nd and the 6th minute is measured--the shorter this time, the more the substance is active. Each substance was studied on a batch of 10 mice. The results are the average of at least two experiments."}, "[4]": {"assay": "Acute toxicity (LD50, 24 hours, intraperitoneal)", "settings": "mouse, in vivo, ip", "procedure": "as §1\nFrom the results obtained, the lethal dose 50, i.e. the dose provoking the death of 50% of the animals studied, is determined for each of the products studied."}, "[5]": {"settings": "cited from earlier work"}, "[6]": {"settings": "mice, mortality during 24 hours"}},
  "note": "Counter-ions that a name gives are not always drawn.",
  "data": [
    {"molecule": "Br.Br.Cc1cc(-c2ccc(O)cc2)nnc1NCCN1CCOCC1", "note": "[CM 30366, 3-(2-MORPHOLINO ETHYLAMINO)4-METHYL 6-(4-HYDROXY PHENYL)PYRIDAZINE DIHYDROBROMIDE]", "values": [
      {"measurement": "ED50", "setting": "[1]", "value": 12, "unit": "mg/kg"},
      {"measurement": "Average number of ipsilateral rotations in 2 minutes, % with respect to controls", "setting": "[2]", "value": -111, "unit": "%"},
      {"measurement": "Convulsivant threshold dose", "setting": "mice; mouse, in vivo, ip", "value": 200, "unit": "mg/kg"},
      {"measurement": "\"Behavioral Despair\" % of reduction of the duration of immobilisation", "setting": "[3]", "value": -31, "unit": "%"},
      {"measurement": "LD50 at 24 h", "setting": "[4]", "value": "> 200", "unit": "mg/kg"}
    ]},
    {"molecule": "Cc1cc(-c2ccccc2)nnc1NCCN1CCOC(=O)C1", "note": "[CM 30489, 3-[2-(2-OXO 4-MORPHOLINYL)ETHYLAMINO]4-METHYL 6-PHENYL PYRIDAZINE, DIHYDROCHLORIDE]", "values": [
      {"measurement": "Average number of ipsilateral rotations in 2 minutes, % with respect to controls", "setting": "[2]", "value": -97, "unit": "%"}
    ]},
    {"molecule": "Cc1cc(-c2cccc(O)c2)nnc1NCCN1CCOCC1", "note": "[SR 95082, 3-(2-morpholinoethylamino)4-methyl 6-(3-hydroxyphenyl)pyridazine]", "values": [
      {"measurement": "Convulsivant threshold dose", "setting": "mice; mouse, in vivo, ip", "value": "> 200", "unit": "mg/kg"},
      {"measurement": "LD50 at 24 h", "setting": "[4]; [6]", "value": "> 200", "unit": "mg/kg"}
    ]},
    {"molecule": "Cc1cc(-c2ccccc2)nnc1NCCN1CCOCC1=O", "note": "[CM 30488, 3-[2-(3-OXO 4-MORPHOLINYL)ETHYLAMINO]4-METHYL 6-PHENYL PYRIDAZINE, HYDROCHLORIDE]", "values": [
      {"measurement": "ED50", "setting": "[1]", "value": 20, "unit": "mg/kg"},
      {"measurement": "Average number of ipsilateral rotations in 2 minutes, % with respect to controls", "setting": "[2]", "value": -90, "unit": "%"},
      {"measurement": "Convulsivant threshold dose", "setting": "mice; mouse, in vivo, ip", "value": 300, "unit": "mg/kg"},
      {"measurement": "LD50 at 24 h", "setting": "[4]", "value": "> 300", "unit": "mg/kg"}
    ]},
    {"molecule": "Cc1cc(-c2ccccc2O)nnc1NCCN1CCOCC1", "note": "[SR 95070, 3-(2-morpholinoethylamino)4-methyl 6-(2-hydroxyphenyl)pyridazine]", "values": [
      {"measurement": "Average number of ipsilateral rotations in 2 minutes, % with respect to controls", "setting": "[2]", "value": -89, "unit": "%"},
      {"measurement": "Convulsivant threshold dose", "setting": "mice; mouse, in vivo, ip", "value": 200, "unit": "mg/kg"},
      {"measurement": "LD50 at 24 h", "setting": "[4]; [6]", "value": "> 200", "unit": "mg/kg"}
    ]},
    {"molecule": "Cc1cc(-c2ccccc2)nnc1NCCNCCO", "note": "[CM 30311, 3-[2-(2-HYDROXY ETHYLAMINO)ETHYLAMINO]4-METHYL 6-PHENYL PYRIDAZINE, DIHYDROCHLORIDE]", "values": [
      {"measurement": "Average number of ipsilateral rotations in 2 minutes, % with respect to controls", "setting": "[2]", "value": -146, "unit": "%"},
      {"measurement": "Convulsivant threshold dose", "setting": "mice; mouse, in vivo, ip", "value": 200, "unit": "mg/kg"},
      {"measurement": "LD50 at 24 h", "setting": "[4]", "value": "> 200", "unit": "mg/kg"}
    ]},
    {"molecule": "Cc1cc(-c2ccc(O)cc2)nnc1N", "note": "[SR 95087, 3-amino 4-methyl 6-(4-hydroxyphenyl)pyridazine]", "values": [
      {"measurement": "Convulsivant threshold dose", "setting": "mice; mouse, in vivo, ip", "value": "> 200", "unit": "mg/kg"},
      {"measurement": "LD50 at 24 h", "setting": "[4]; [6]", "value": "> 200", "unit": "mg/kg"}
    ]},
    {"molecule": "Cc1cc(-c2ccccc2)nnc1N", "note": "[CM 30465, 3-AMINO 4-METHYL 6-PHENYL PYRIDAZINE(HYDROCHLORIDE)]", "values": [
      {"measurement": "ED50", "setting": "[1]", "value": 8.6, "unit": "mg/kg"},
      {"measurement": "Average number of ipsilateral rotations in 2 minutes, % with respect to controls", "setting": "[2]", "value": -89, "unit": "%"},
      {"measurement": "Convulsivant threshold dose", "setting": "mice; mouse, in vivo, ip", "value": 200, "unit": "mg/kg"},
      {"measurement": "\"Behavioral Despair\" % of reduction of the duration of immobilisation", "setting": "[3]", "value": -24, "unit": "%"},
      {"measurement": "LD50 at 24 h", "setting": "[4]", "value": 226, "unit": "mg/kg"}
    ]},
    {"molecule": "Cc1cc(-c2ccccc2)nnc1NCCN1CCOCC1", "note": "[Minaprine, reference compound]", "values": [
      {"measurement": "ED50", "setting": "[1]", "value": 5, "unit": "mg/kg"},
      {"measurement": "type of psychotherapeutic action", "setting": "[5]; in vivo", "value": "\"disinhibitory\" activity"},
      {"measurement": "dose above which convulsivant", "setting": "[5]; per os", "value": "higher than 100 mg/kg"},
      {"measurement": "Average number of ipsilateral rotations in 2 minutes, % with respect to controls", "setting": "[2]", "value": -91, "unit": "%"},
      {"measurement": "Convulsivant threshold dose", "setting": "mice; mouse, in vivo, ip", "value": 35, "unit": "mg/kg"},
      {"measurement": "\"Behavioral Despair\" % of reduction of the duration of immobilisation", "setting": "[3]", "value": -35, "unit": "%"}
    ]},
    {"molecule": "COc1ccc(-c2cc(C)c(NCCN3CCOCC3)nn2)cc1", "note": "[CM 30073, reference compound]", "values": [
      {"measurement": "Antagonism of the ptosis induced by reserpine (percentage of animals not presenting ptosis)", "setting": "[1]; 1 mg/kg i.p.", "value": 30, "unit": "%"},
      {"measurement": "Antagonism of the ptosis induced by reserpine (percentage of animals not presenting ptosis)", "setting": "[1]; 5 mg/kg i.p.", "value": 60, "unit": "%"},
      {"measurement": "Average number of ipsilateral rotations in 2 minutes, % with respect to controls", "setting": "[2]", "value": 0, "unit": "%"},
      {"measurement": "Convulsivant threshold dose", "setting": "mice; i.p., mice, minimum dose for which a convulsivant activity begins to show", "value": 5, "unit": "mg/kg"},
      {"measurement": "LD50 at 24 h", "setting": "[4]; [6]", "value": 19, "unit": "mg/kg"}
    ]},
    {"molecule": "CCN(CCO)CCNc1nnc(-c2ccccc2)cc1C", "note": "[SR 95084, 3-{2-[N-ethyl(2-hydroxyethylamino)]ethylamino}4-methyl 6-phenyl pyridazine]", "values": [
      {"measurement": "Convulsivant threshold dose", "setting": "mice; mouse, in vivo, ip", "value": 200, "unit": "mg/kg"},
      {"measurement": "LD50 at 24 h", "setting": "[4]; [6]", "value": "100 to 200", "unit": "mg/kg"}
    ]},
    {"molecule": "Cc1cc(-c2ccccc2)nnc1NCC[N+]1([O-])CCOCC1", "note": "[SR 30490, N-OXIDE of 3-(2-MORPHOLINO ETHYLAMINO 4-METHYL 6-PHENYL PYRIDAZINE]", "values": [
      {"measurement": "ED50", "setting": "[1]", "value": "~50", "unit": "mg/kg"},
      {"measurement": "Convulsivant threshold dose", "setting": "mice; mouse, in vivo, ip", "value": 300, "unit": "mg/kg"},
      {"measurement": "LD50 at 24 h", "setting": "[4]", "value": "> 200", "unit": "mg/kg"}
    ]}
  ]
}
